Experimental data taken from EP0227818B1, “ANTIGLAUCOMA COMPOSITIONS” (SCHERING CORPORATION, priority 1985, dated 1987).

What was measured:
[1] = Gross examination of cornea, iris, conjunctivae and pupil diameter for ocular irritation in the IOP study; format: in vivo, Male New Zealand white rabbits; conditions: rabbits, topical ocular dosing
From the text: Prior to drug administration and at each IOP determination, the cornea, iris, and conjunctivae were grossly examined for signs of irritation. Pupil diameter was also examined but detailed measurements were not made.

[2] = system: intraocular pressure (IOP); assay: Intraocular pressure (IOP) lowering in conscious normotensive rabbits after topical dosing, applanation tonometer; format: in vivo, Male New Zealand white rabbits; conditions: 0.5% Timolol alone (plus 50 µl vehicle 1), 50 µl topical to left eye, mean ± SEM; statistically significant vs placebo; concentration giving maximum IOP reduction with timolol alone
Experimental: Food and water were allowed ad libitum. The rabbits were maintained on a light cycle of 12 h darkness (7 PM to 7 AM) followed by 12 h of light. Animals were conditioned to their handlers and the laboratory setting and IOP measurements for at least one 4 h period before being used to study drug effects.
Rabbits were restrained in a cloth sack approximately 2 min prior to IOP determinations. The left lower eyelid was retracted forming a pouch and 1 drop of the local anesthetic proparacaine (0.05% w/v) was irrigated over the cornea. The eyelid was then held closed over the eye about 1 min. IOP was usually monitored 1 h before dosing, at zero time (immediately prior to dosing), and hourly for the next 4 h. Only rabbits with IOP's of 18-23 mmHg and showing no sign of ocular irritation were used in drug studies.
IOP, in mmHg, was determined in triplicate with a McKag-Marg applanation tonometer and the average reading was recorded. The tonometer had previously been calibrated against direct manometric determination of IOP in living eyes of barbiturate-anesthetized rabbits. Internal calibration signals of the McKay-Marg unit were checked after every eight readings or less. […]
The data (mean I SEM) were analyzed using analysis of variance and Dunnett's or Duncan's comparisons and are expressed as peak changes in IOP. […]

CC(C)(C)NC[C@H](O)COc1nsnc1N1CCOCC1 [Timolol, 1-[(1,1-dimethylethyl)amino]-3-[(4-morpholinyl-1,2,5-thiadiazol-3-yl)-oxy]-2-propanol]
signs of acute ocular irritation ([1]; all concentrations tested): None | Pupillary diameters ([1]; examined, detailed measurements not made): not affected | Peak Change in IOP [2]: -3.0±0.4^(1) mmHg
